SMILES strings stand for the structures. ± gives the uncertainty stated by the source.

Holding throughout (conditions): 18 h
Assay [1] deals with HEK293T-Rex ERSE-FLuc. The assay is described as follows: EC50 for ERSE-FLuc reporter activation. As for the experimental part:
(§1)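 Dose-response of hit compounds in HEK293T-Rex cells stably expressing ERSE-FLuc or XBP1-RLuc reporters, 18 hr treatment, 1536-well; luminescence normalised to 500 nM thapsigargin (100%) and DMSO (0%), fitted to give EC50 (M) and maximal activation; '>' marks EC50 above the top tested dose (~17 µM).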

The subject of assay [2] is HEK293T-Rex XBP1-RLuc. Put plainly: EC50 for XBP1-RLuc reporter activation. As for the experimental part: as §1
Assay [3] has as its system HEK293T-Rex ERSE-FLuc. The assay is described as follows: maximal ERSE-FLuc activation from dose-response fit, relative to thapsigargin (% of thapsigargin); higher = stronger activation. As for the experimental part:
as §1

The test system of assay [4] is HEK293T-Rex XBP1-RLuc. The assay is described as follows: maximal XBP1-RLuc activation from dose-response fit, relative to thapsigargin (% of thapsigargin); higher = stronger activation. As for the experimental part:
as §1

On to `Nc1nc(Nc2ccc(Cl)cc2)nc2ccccc12`, for which, in the assay on HEK293T-Rex ERSE-FLuc [1], the “EC50 for ERSE-FLuc reporter activation” value stood at 9.57 µM. Besides, the “EC50 for XBP1-RLuc reporter activation” value in the assay with HEK293T-Rex XBP1-RLuc [2] was 8.74 µM. Also, the “maximal ERSE-FLuc activation” value in the assay with HEK293T-Rex ERSE-FLuc [3] worked out at 103 ± 24. In addition, the “maximal XBP1-RLuc activation” value in the assay with HEK293T-Rex XBP1-RLuc [4] worked out at 56.4 ± 4.6.
On the same counts, the results for `Cc1ccc(O)c(NC(=O)c2cc(CC(C)C)on2)c1` are 3.94 µM, over 16.9 µM, 89.2 ± 8 and 37.2 ± 9.3.
Consider `CCCNc1ccnc(N2CCc3ccccc3C2)n1`, for which the “EC50 for ERSE-FLuc reporter activation” value in the assay with HEK293T-Rex ERSE-FLuc [1] is over 17.7 µM. The “EC50 for XBP1-RLuc reporter activation” value in the assay on HEK293T-Rex XBP1-RLuc [2] was over 17.7 µM. Further, the “maximal ERSE-FLuc activation” value in the assay with HEK293T-Rex ERSE-FLuc [3] is 12 ± 7.5. Also, in the assay with HEK293T-Rex XBP1-RLuc [4], the “maximal XBP1-RLuc activation” value was 1.68 ± 0.28.
As for `COc1ccc2c(Cl)c(C(=O)Nc3ccccc3C(N)=O)sc2c1`, the “EC50 for ERSE-FLuc reporter activation” value with HEK293T-Rex ERSE-FLuc [1] is over 16.9 µM. Moreover, the “EC50 for XBP1-RLuc reporter activation” value in the assay on HEK293T-Rex XBP1-RLuc [2] was over 16.9 µM. The “maximal ERSE-FLuc activation” value in the assay with HEK293T-Rex ERSE-FLuc [3] came out at 21.3 ± 1.3. Moreover, the “maximal XBP1-RLuc activation” value in the assay on HEK293T-Rex XBP1-RLuc [4] was 6.81 ± 1.3.
Consider `O=C(N/N=C/c1ccc2c(c1)OCO2)c1cccc(F)c1`, for which the “EC50 for ERSE-FLuc reporter activation” value in the assay with HEK293T-Rex ERSE-FLuc [1] was over 16.9 µM. In addition, the “EC50 for XBP1-RLuc reporter activation” value with HEK293T-Rex XBP1-RLuc [2] was over 16.9 µM. The “maximal ERSE-FLuc activation” value in the assay with HEK293T-Rex ERSE-FLuc [3] stood at 20.8 ± 5.2. Further, in the assay on HEK293T-Rex XBP1-RLuc [4], the “maximal XBP1-RLuc activation” value turned out to be 5.7 ± 0.65.
In the case of `C=CCNC(=O)c1sc2nc3cc(C)c(C)cc3cc2c1N`, the “EC50 for ERSE-FLuc reporter activation” value with HEK293T-Rex ERSE-FLuc [1] was over 16.9 µM. Moreover, the “EC50 for XBP1-RLuc reporter activation” value with HEK293T-Rex XBP1-RLuc [2] was over 16.9 µM. For the same compound, the “maximal ERSE-FLuc activation” value in the assay on HEK293T-Rex ERSE-FLuc [3] stood at 8.68 ± 2. The “maximal XBP1-RLuc activation” value in the assay with HEK293T-Rex XBP1-RLuc [4] amounted to 2.32 ± 1.2.
With `O=c1cc(-c2ccc(O)c(O)c2)oc2ccccc12`, in the assay on HEK293T-Rex ERSE-FLuc [1], the “EC50 for ERSE-FLuc reporter activation” value is over 17.1 µM. In addition, in the assay with HEK293T-Rex XBP1-RLuc [2], the “EC50 for XBP1-RLuc reporter activation” value is over 17.1 µM. Also, the “maximal ERSE-FLuc activation” value in the assay on HEK293T-Rex ERSE-FLuc [3] was 32.7 ± 5. For the same compound, the “maximal XBP1-RLuc activation” value in the assay with HEK293T-Rex XBP1-RLuc [4] amounted to 43.9 ± 0.95.
As to `O=C1c2cc(O)ccc2-c2ccc(O)cc21`, in the assay on HEK293T-Rex ERSE-FLuc [1], the “EC50 for ERSE-FLuc reporter activation” value came to 8.44 µM. Besides, in the assay on HEK293T-Rex XBP1-RLuc [2], the “EC50 for XBP1-RLuc reporter activation” value turned out to be 8.87 µM. The “maximal ERSE-FLuc activation” value with HEK293T-Rex ERSE-FLuc [3] amounted to 65.1 ± 18. In addition, the “maximal XBP1-RLuc activation” value in the assay on HEK293T-Rex XBP1-RLuc [4] came to 73.2 ± 6.5.
On the same counts, the results for `O=C(CCCCCCC(=O)Nc1ccccc1)NO` are 6.58 µM, over 16.9 µM, 132 ± 25 and 3.17 ± 2.9.
On the same counts, the results for `COc1ccc(C2=Nn3c(nnc3-c3ccc(OC)cc3)SC2)cc1` are over 16.9 µM, over 16.9 µM, 17 ± 5.2 and 16 ± 2.4.
On the same counts, the results for `Oc1ccc(-c2csc3nc(-c4ccccc4)nn23)c(O)c1` are over 16.9 µM, over 16.9 µM, 30.1 ± 2.2 and 32.4 ± 1.3.
As to `Oc1ccc(/C=N/Nc2cccc(Cl)n2)c(O)c1`, the “EC50 for ERSE-FLuc reporter activation” value in the assay with HEK293T-Rex ERSE-FLuc [1] was over 16.9 µM. In addition, the “EC50 for XBP1-RLuc reporter activation” value in the assay on HEK293T-Rex XBP1-RLuc [2] was over 16.9 µM. Further, the “maximal ERSE-FLuc activation” value in the assay on HEK293T-Rex ERSE-FLuc [3] came to 24.4 ± 4.8. The “maximal XBP1-RLuc activation” value in the assay on HEK293T-Rex XBP1-RLuc [4] worked out at 33.6 ± 1.8.
As for `Oc1ccc(-c2cn3ccccc3n2)cc1O`, in the assay on HEK293T-Rex ERSE-FLuc [1], the “EC50 for ERSE-FLuc reporter activation” value stood at 18.4 µM. Further, in the assay with HEK293T-Rex XBP1-RLuc [2], the “EC50 for XBP1-RLuc reporter activation” value is over 22.5 µM. Further, the “maximal ERSE-FLuc activation” value with HEK293T-Rex ERSE-FLuc [3] turned out to be 51.7 ± 5.5. In addition, the “maximal XBP1-RLuc activation” value in the assay on HEK293T-Rex XBP1-RLuc [4] is 38.7 ± 3.2.
On the same counts, the results for `CCOc1ccc2nc(NC(=O)c3ccn(C)n3)sc2c1` are over 14.4 µM, over 14.4 µM, 10.9 ± 2.4 and 4.53 ± 2.8.
For `Cc1ccc(O)c(N/C=C/C(=O)c2ccc(F)cc2)c1`, in that order: 3.31 µM, 11.9 µM, 303 ± 13 and 84.1 ± 19.
For `O=C1NC(=Nc2ccc(F)cc2)S/C1=C\c1ccc(O)c(O)c1`, in that order: 6.92 µM, 12.4 µM, 85.9 ± 7.7 and 55.3 ± 2.5.
`O=C(Nc1ccccc1O)c1cc2ccccc2o1`: the “EC50 for ERSE-FLuc reporter activation” value in the assay on HEK293T-Rex ERSE-FLuc [1] is over 21 µM. Further, in the assay with HEK293T-Rex XBP1-RLuc [2], the “EC50 for XBP1-RLuc reporter activation” value was over 21 µM. In addition, the “maximal ERSE-FLuc activation” value in the assay with HEK293T-Rex ERSE-FLuc [3] was 40.6 ± 8.2. Besides, the “maximal XBP1-RLuc activation” value in the assay with HEK293T-Rex XBP1-RLuc [4] amounted to 20.1 ± 3.2.
As to `Nc1nc(Nc2ccc(Cl)c(Cl)c2)nc2ccccc12`, in the assay on HEK293T-Rex ERSE-FLuc [1], the “EC50 for ERSE-FLuc reporter activation” value is 7.93 µM. Also, in the assay on HEK293T-Rex XBP1-RLuc [2], the “EC50 for XBP1-RLuc reporter activation” value is 12.3 µM. In addition, the “maximal ERSE-FLuc activation” value in the assay with HEK293T-Rex ERSE-FLuc [3] was 138 ± 11. In the assay with HEK293T-Rex XBP1-RLuc [4], the “maximal XBP1-RLuc activation” value is 61.9 ± 4.
On the same counts, the results for `O=c1[nH]c(/C=C2\C=Nc3ccccc32)c(O)n1-c1ccc(Cl)cc1` are over 16.9 µM, 4.87 µM, 44.1 ± 7.8 and 89 ± 4.6.
For `Cc1cc(C)nc(Nc2nc(-c3ccc(O)c(O)c3)cs2)n1`, the “EC50 for ERSE-FLuc reporter activation” value with HEK293T-Rex ERSE-FLuc [1] is over 16.9 µM. In the assay with HEK293T-Rex XBP1-RLuc [2], the “EC50 for XBP1-RLuc reporter activation” value came out at 14.1 µM. Also, the “maximal ERSE-FLuc activation” value with HEK293T-Rex ERSE-FLuc [3] came out at 39.7 ± 7.3. The “maximal XBP1-RLuc activation” value in the assay with HEK293T-Rex XBP1-RLuc [4] came to 59.1 ± 1.4.
For `C/C(=N\NC(=O)c1n[nH]c2c1CCCC2)c1ccc(Br)cc1`, in that order: over 16.9 µM, over 16.9 µM, 32.5 ± 9.9 and 8.77 ± 2.
On the same counts, the results for `CCCCCCc1ccc(-c2ncc(N)cn2)cc1` are 5.65 µM, over 16.9 µM, 76.7 ± 9.1 and 44.3 ± 1.5.
